Patent publication US10548911B2, “Small molecule anti-scarring agents” (UNIVERSITY OF ROCHESTER, priority 2014, dated 2020)
“Also recorded” adds a separate entry of the source.

Experiments:
[1] = tested on: TGFβ-induced myofibroblast formation in human fibroblasts; assay: Western blot of myofibroblast markers αSMA and calponin in TGFβ-treated human (TED orbital) fibroblasts; format: cell-based; conditions: 250 nM, 72 hours
[2] = tested on: TGFβ-induced SBE-luciferase activity; assay: Secondary dual luciferase screen (SBE-luciferase normalized to constitutive Renilla luciferase); format: cell-based, human; conditions: for inhibition of luciferase expression, dose responsiveness: secondary dual luciferase screen, several doses (low micromolar)
Description: FIG. 1A is a diagram of Smad-dependent reporter construct. Four tandem Smad binding elements (SBE) were inserted upstream of the minimal Thymidine Kinase (TK) promoter. Downstream of the promoter is a destabilized version of the firefly luciferase gene (luc2P) present in the pLuc2P-Hygro plasmid which also harbors the hygromycin resistance gene. The plasmid was introduced into HEK293FT cell line and individual colonies were selected with hygromycin (200 ug/ml) to develop a Smad/TGFβ dependent-luciferase reporter cell line. FIG. 1B is a graph illustrating the response of the reporter cell line to 1 ng/ml treatment of TGFβ for 20 hours, which results in an approximately 20-fold increase of luciferase activity.
They are: Benzbromarone (“BZB”), Bithionate sodium (“BTS”), Piplartine (piperlongumine) (“PPT”), Amsacrine (“ASC”), and Alexidine (“AXD”). A secondary luciferase screening assay was performed to determine specificity and dose responsiveness of these compounds in comparison to salinomycin (“SNC”). The secondary screen utilizes dual luciferase technology that includes the above mentioned SBE-luciferase in addition to a Renilla luciferase that is under control of the constitutive SV40 promoter. Therefore the SBE-luciferase activity can be normalized to the Renilla luciferase activity to control for toxicity and non-specific effects. The secondary screen can thus be used to remove small molecules that display overt toxicity and/or non-specific effects on the primary assay.

[3] = tested on: primary human lung fibroblasts; assay: TGFβ-induced myofibroblast formation, αSMA Western blot and cell images, primary human lung fibroblasts; format: cell-based; conditions: HCPT 50 nM or 500 nM, TGFβ, listed as SNC
Description: Human lung fibroblasts were treated with various concentrations of 10-hydroxycamptothecin (HCPT) (50 nM or 500 nM) and induced to form scar-forming myofibroblasts by treating with TGFβ.

[4] = tested on: TGFβ-dependent myofibroblast formation in primary human fibroblasts; assay: Myofibroblast formation assay in primary human fibroblasts (morphology, Western blot) for Spectrum hits; format: cell-based
Description: Using the lowest effective dose from the secondary screening assay, PPT (5 μM), ASC (1 μM), BTS (1 μM), and AXD (1 μM) were compared to 0.1 μM SNC using primary human fibroblasts (FIG. 13). The myofibroblast formation assay consists of the following protocol: fibroblasts are treated with the aforementioned small molecules and treated with TGFβ (1 ng/ml) for 72 hours. The cells were then either photographed for morphological analysis or collected, lysed and analyzed by Western blot for the myofibroblast markers alpha-smooth muscle actin (αSMA) and calponin. β-tubulin was used as a loading control.
PPT was used at 1 and 5 μM (lanes 3 and 4), BTS was used at 0.1 and 1 μM (lanes 5 and 6), ASC was used at 0.1 and 1 μM (lanes 7 and 8), SNC was used at 100 nM and 1 μM (lanes 9 and 10), and AXD was used at 0.1 and 1 μM (lanes 11 and 12).

[5] = tested on: TGFβ induced Smad-luc activity; assay: Smad-luc reporter in human orbital fibroblasts electroporated with control or MKK6(glu) plasmid; format: cell-based; conditions: 250 nM, 24 hours
Description: Plasmid DNA was introduced into human fibroblasts by electroporation. Plasmids were electroporated with an Amaxa nucleofector (program U-025) into 1×10^6 cells. The pcDNA3-flag MKK6(glu) plasmid was obtained from Addgene (plasmid 13518, from Roger Davis' lab). After transfection cells were cultured for 12-24 hours and culture medium was subsequently changed to treatment conditions.
To further test if salinomycin targets the p38 pathway to block myofibroblast formation, a plasmid encoding a mutant MKK6 (pcDNA3-flag MKK6(glu)) protein was used. MKK6 phosphorylates and thus activates p38 in response to extracellular signals such as TGFβ or other environmental stresses. The MKK6(glu) protein, which harbors glutamate mutations at amino acid residues serine 207 and threonine 211, is constitutively active and thus phosphorylates p38 irrespective of signal (Raingeaud et al., “MKK3- and MKK6-regulated gene expression is mediated by the p38 mitogen-activated protein kinase signal transduction pathway,” Mol. Cell. Biol. 16:1247-1255 (1996), which is hereby incorporated by reference in its entirety). Thus, if salinomycin is blocking the p38 signaling pathway, MKK6(glu) should overcome the effect of salinomycin. MKK6(glu) was first tested using the SBE4-TK-luc reporter plasmid. The luciferase reporter plasmid was introduced into human fibroblasts along with the MKK6(glu) plasmid or a control plasmid (pcDNA3-GFP). Cells were then treated with vehicle, TGFβ or TGFβ plus 250 nM salinomycin. After 24 hours, luciferase activity was measured (FIG. 6A). […] MKK6(glu) was further tested to assess whether it could attenuate the ability of salinomycin to inhibit p38 phosphorylation. Control or MKK6(glu) plasmids were introduced into human fibroblasts by electroporation and then cells were treated with TGFβ for 24 hours. Following treatment, cells were analyzed for flag-MKK6(glu) expression and phospho-p38 by Western blot (FIG. 6B). […] Samples were analyzed for expression of flag-MKK6(glu), αSMA, calponin and β-tubulin by Western blot (FIG. 6C).

p38 = conditions: human ovarian cancer, 2-7 uM; cited from earlier work

## CC[C@@H](C(=O)[C@@H](C)[C@@H](O)[C@H](C)[C@@H]1O[C@@H]([C@@H](CC)C(=O)O)CC[C@@H]1C)[C@H]1O[C@]2(C=C[C@@H](O)[C@]3(CC[C@@](C)([C@H]4CC[C@](O)(CC)[C@H](C)O4)O3)O2)[C@H](C)C[C@@H]1C [salinomycin]
[1]; MKK6(glu) expressing cells
  TGFβ induced expression of αSMA and calponin: attenuated the ability of salinomycin to block
[1]; control GFP expressing cells
  TGFβ induced expression of αSMA and calponin: blocked their induction
[2]; 1 uM
  TGFβ-induced SBE-luciferase activity level: below baseline levels
[2]
  inhibition of luciferase expression, dose responsiveness: dose dependent decrease; also recorded: dose responsive decrease
[2]; listed as SNC
  inhibition of luciferase expression, dose responsiveness: substantially inhibited luciferase expression
[3]
  formation of myofibroblasts (cell images): not in samples treated with HCPT or SNC; also recorded: not in samples with HCPT or salinomycin (SNC)
[4]; FIG. 14 lanes: PPT 1, 5 uM, BTS, ASC, AXD 0.1, 1 uM, SNC 100 nM, 1 uM
  α-SMA and calponin expression in human fibroblasts: inhibit β-dependent α-SMA and calponin expression
[4]; both doses, 100 nM and 1 μM
  expression of Thy1: inhibits expression of Thy1
[4]; lower dose, 100 nM
  TGFβ-dependent αSMA and calponin (marker) expression: effective even at the lower dose
[4]; lowest effective dose from secondary screen: PPT 5 μM, ASC, BTS, AXD 1 μM, SNC 0.1 μM, TGFβ 1 ng/ml, 72 hours
  myofibroblast formation / phenotype: inhibit myofibroblast phenotype
[5]; constitutively active MKK6(glu) plasmid
  TGFβ-induced Smad-luc (luciferase) activity: attenuated the effect of salinomycin; also recorded: unable to block TGFβ-induced luciferase activity
[5]; control (GFP) plasmid
  TGFβ-induced Smad-luc (luciferase) activity: completely blocked TGFβ-induced luciferase activity
[5]; control (GFP) plasmid, listed as Salinomycin
  TGFβ-induced Smad-luc (luciferase) activity: blocked TGFβ induced Smad-luc activity
p38
  p38 activity: activated
